Source: patent publication US5463030A, “Metal chelating agents for medical application” (Research Foundation of the State of New York, priority 1994, dated 1995)
Like-named read-outs stand apart in the source and are kept apart here. One block for each compound: values may come before it.

What was measured:
[1] = rat, in vivo, 0 min
[2] = mouse, in vivo; for % dosage, Urine: iv
[3] = in vivo; cited from earlier work
[4] = Osmotic pressure of Gd-DTPA bis pyridoxylamine solution; type: physicochemical; settings: 0.144 moles/liter solution; pH 7.08
Experimental: 0.50 g of the DTPA-bis pyridoxylamine synthesized in Example 4 was reacted with 0.15 g of Gd(OH)3 and 3.6 ml of water. The pH of the mixture was adjusted to 7.51 with sodium hydroxide. The mixture was then heated in an oil bath at a temperature of about 90° C. for about 45 minutes. The mixture was cooled and the pH adjusted to 7.08 with sodium hydroxide. 5.0 ml of the product was recovered. The concentration of the resulting Gd-DTPA bis pyridoxylamine was determined to be 0.144 moles/liter with an osmotic pressure of 646 m Os moles/liter.

[5] = cited from earlier work
[6] = MRI; cited from earlier work

% Retained, whole body [1]: 100%
% dosage, Blood ([2]; 60 min): .4441 % DOSAGE
% dosage, Bone ([2]; 60 min): .1489 % DOSAGE
% dosage, Large Intestine ([2]; 60 min): .0781 % DOSAGE
% dosage, Left Kidney ([2]; 60 min): .7115 % DOSAGE
% dosage, Liver ([2]; 60 min): 22.95 % DOSAGE
% dosage, Lungs ([2]; 60 min): .0326 % DOSAGE
% dosage, Muscle ([2]; 60 min): .6207 % DOSAGE
% dosage, Right Kidney ([2]; 60 min): .6676 % DOSAGE
% dosage, Small Intestine ([2]; 60 min): 36.08 % DOSAGE
% dosage, Spleen ([2]; 60 min): .0214 % DOSAGE
% dosage, Stomach ([2]; 60 min): .2113 % DOSAGE
% dosage, Blood ([2]; 180 min): .0188 % DOSAGE
% dosage, Bone ([2]; 180 min): .0678 % DOSAGE
% dosage, Large Intestine ([2]; 180 min): 1.471 % DOSAGE
% dosage, Left Kidney ([2]; 180 min): .4528 % DOSAGE
% dosage, Liver ([2]; 180 min): 2.805 % DOSAGE
% dosage, Lungs ([2]; 180 min): .0075 % DOSAGE
% dosage, Muscle ([2]; 180 min): .6183 % DOSAGE
% dosage, Right Kidney ([2]; 180 min): .5235 % DOSAGE
% dosage, Small Intestine ([2]; 180 min): 52.10 % DOSAGE
% dosage, Spleen ([2]; 180 min): .0096 % DOSAGE
% dosage, Stomach ([2]; 180 min): .1254 % DOSAGE
% dosage, Blood ([2]; 1440 min): .0038 % DOSAGE
% dosage, Bone ([2]; 1440 min): .1551 % DOSAGE
% dosage, Large Intestine ([2]; 1440 min): .5091 % DOSAGE
% dosage, Left Kidney ([2]; 1440 min): .1050 % DOSAGE
% dosage, Liver ([2]; 1440 min): 1.659 % DOSAGE
% dosage, Lungs ([2]; 1440 min): .0085 % DOSAGE
% dosage, Muscle ([2]; 1440 min): .0861 % DOSAGE
% dosage, Right Kidney ([2]; 1440 min): .1102 % DOSAGE
% dosage, Small Intestine ([2]; 1440 min): .1533 % DOSAGE
% dosage, Spleen ([2]; 1440 min): .0042 % DOSAGE
% dosage, Stomach ([2]; 1440 min): .0468 % DOSAGE
% dosage, Urine ([2]; 1 h): 26.30 % DOSAGE
% dosage, Urine ([2]; 3 h): 32.13 % DOSAGE
Compound: Cc1cccc(C)c1NC(=O)CN(CCN(CCN(CC(=O)[O-])CC(=O)Nc1c(C)cccc1C)CC(=O)[O-])CC(=O)[O-].[153Gd+3] [Gadolinium III chelate of DTPA-bis (2,6-dimethylaniline)]

Compound: O=C([O-])CN(CCN(CC(=O)[O-])CC(=O)[O-])CCN(CC(=O)[O-])C(COCc1ccccc1)C(=O)[O-].[Gd+3] (stereo not drawn) [Gd-BOPTA, gadolinium-benzyloxyproprionyl tetracetate]
liver concentration of injected dose [3]: 37%

osmotic pressure [4]: 646 m Os moles/liter
Compound: Cc1ncc(CO)c(CNC(=O)CN(CCN(CCN(CC(=O)[O-])CC(=O)NCc2c(CO)cnc(C)c2O)CC(=O)[O-])CC(=O)[O-])c1O.[Gd+3] [Gd-DTPA bis pyridoxylamine, Gadolinium III chelate of DTPA-bis pyridoxylamide]

Compound: O=C([O-])CN(CCN(CC(=O)[O-])CC(=O)O)CCN(CC(=O)[O-])CC(=O)O.[Gd+3] [Gd-DTPA, gadolinium-diethylene triamino pentaacetic acid]
blood clearance and excretion [3]: rapid clearance from the blood and subsequent prompt renal excretion

Compound: gadolinium-hepatic iminodiacetic acid [Gd-HIDA]
in vivo stability [5]: unstable in vivo
image enhancement of the gall bladder [6]: failed to enhance the image of the gall bladder
image enhancement of the liver [6]: only faintly enhanced images of the liver
